Experimental data taken from PubChem BioAssay AID330 (DTP/NCI, 2004).
“And” between values parts separate entries of the source, which are not always exact repeats. Equal entries are not always repeated. Inconclusive results and toxic doses are left out.

Tested on: P388 leukemia ip, CD2F1 mice, survival T/C
Assay: NCI In Vivo Anticancer Drug Screen. Data for tumor model P388 Leukemia (intraperitoneal) in CD2F1 (CDF1) mice
Details: endpoint: median survival time, higher = longer survival
How it was run: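 Mice carrying the transplanted tumor received test compound or vehicle. Survival was recorded in each group, and the value is the treated-group measurement divided by that of the vehicle-treated control group.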

[1] = dose: 60.0 mg/kg/injection, schedule: Q01DX005 (ip), vehicle: saline with Tween-80
[2] = dose: 50.0 mg/kg/injection, schedule: Q01DX005 (ip), vehicle: saline with Tween-80
[3] = dose: 100.0 mg/kg/injection, schedule: Q01DX005 (ip), vehicle: saline with Tween-80
[4] = dose: 200.0 mg/kg/injection, schedule: Q01DX005 (ip), vehicle: saline with Tween-80
[5] = dose: 50.0 mg/kg/injection, schedule: Q01DX005 (ip), vehicle: Klucel (hydroxypropylcellulose) (HPC)
[6] = dose: 100.0 mg/kg/injection, schedule: Q01DX005 (ip), vehicle: Klucel (hydroxypropylcellulose) (HPC)
[7] = dose: 200.0 mg/kg/injection, schedule: Q01DX005 (ip), vehicle: Klucel (hydroxypropylcellulose) (HPC)
[8] = dose: 120.0 mg/kg/injection, schedule: Q01DX005 (ip), vehicle: saline with Tween-80
[9] = dose: 50.0 mg/kg/injection, schedule: Q01DX009 (ip), vehicle: saline with Tween-80
[10] = dose: 100.0 mg/kg/injection, schedule: Q01DX009 (ip), vehicle: saline with Tween-80
[11] = dose: 200.0 mg/kg/injection, schedule: Q01DX009 (ip), vehicle: saline with Tween-80
[12] = dose: 240.0 mg/kg/injection, schedule: Q01DX005 (ip), vehicle: saline with Tween-80
[13] = dose: 25.0 mg/kg/injection, schedule: Q01DX009 (ip), vehicle: saline with Tween-80
[14] = dose: 50.0 mg/kg/injection, schedule: Q01DX009 (ip), vehicle: Klucel (hydroxypropylcellulose) (HPC)
[15] = dose: 100.0 mg/kg/injection, schedule: Q01DX009 (ip), vehicle: Klucel (hydroxypropylcellulose) (HPC)
[16] = dose: 200.0 mg/kg/injection, schedule: Q01DX009 (ip), vehicle: Klucel (hydroxypropylcellulose) (HPC)

## CC(=O)OCC1OC([Se-])C(OC(C)=O)C(OC(C)=O)C1OC(C)=O.N#CCC[PH+](CCC#N)CCC#N.[Au+] (stereo not given)
[1]
  T/C: 98 % of control

## CCOC(=O)CCN(CC1CC=CCC1)c1cc(O)c2c(c1O)C(=O)c1ccccc1C2=O (stereo not given)
dose: 25.0 mg/kg/injection, schedule: Q01DX005 (ip), vehicle: saline with Tween-80
  T/C: 91 % of control
[2]
  T/C: 92 % of control
[3]
  T/C: 90 % of control
[4]
  T/C: 92 % of control

## O=C1NN(C(=O)c2ccccc2)C(c2ccccc2[N+](=O)[O-])c2c1c1ccccc1n2C(=O)c1ccccc1 (stereo not given)
[5]
  T/C: 97 % of control
[6]
  T/C: 95 % of control
[7]
  T/C: 88 % of control

## CCCCCCCCCC(=O)NC(CN1CCOCC1)C(=O)c1ccccc1 (stereo not given)
dose: 200.0 mg/kg/injection, schedule: Q04DX003 (ip), vehicle: saline
  T/C: 87 % of control
dose: 400.0 mg/kg/injection, schedule: Q04DX003 (ip), vehicle: saline
  T/C: 88 % of control

## COC(=O)C(=O)c1c(C(=O)OC)nc2[nH]n(-c3ccccc3)c(=O)c2c1-c1cccc2ccccc12
dose: 30.0 mg/kg/injection, schedule: Q01DX005 (ip), vehicle: saline with Tween-80
  T/C: 100 % of control and 110 % of control
[1]
  T/C: 98 % of control and 100 % of control
[8]
  T/C: 91 % of control and 94 % of control

## C[C@]12CC(=O)[C@@H](C[C@H]1OC(=O)c1ccccc1)[C@@]21CO1
dose: 2.0 mg/kg/injection, schedule: Q04DX002 (ip), vehicle: distilled water + Tween-80
  T/C: 102 % of control
dose: 4.0 mg/kg/injection, schedule: Q04DX002 (ip), vehicle: distilled water + Tween-80
  T/C: 97 % of control
dose: 8.0 mg/kg/injection, schedule: Q04DX002 (ip), vehicle: distilled water + Tween-80
  T/C: 100 % of control
dose: 16.0 mg/kg/injection, schedule: Q04DX002 (ip), vehicle: distilled water + Tween-80
  T/C: 106 % of control
dose: 32.0 mg/kg/injection, schedule: Q04DX002 (ip), vehicle: distilled water + Tween-80
  T/C: 99 % of control

## Cc1cccc2c(NCCCCCCNc3cc(C)[n+](C)c4c(C)cccc34)cc(C)[n+](C)c12
dose: 3.12 mg/kg/injection, schedule: Q01DX005 (ip), vehicle: suspension in saline
  T/C: 112 % of control
dose: 6.25 mg/kg/injection, schedule: Q01DX005 (ip), vehicle: suspension in saline
  T/C: 106 % of control
dose: 12.5 mg/kg/injection, schedule: Q01DX005 (ip), vehicle: suspension in saline
  T/C: 112 % of control

## O=C1CCCCCCCCCCC1[N+](=O)[O-] (stereo not given)
[2]
  T/C: 95 % of control
[3]
  T/C: 92 % of control
[4]
  T/C: 93 % of control

## c1csc(CSc2ncnc3nc[nH]c23)c1
dose: 100.0 mg/kg/injection, schedule: Q04DX003 (ip), vehicle: saline with Tween-80
  T/C: 100 % of control
dose: 200.0 mg/kg/injection, schedule: Q04DX003 (ip), vehicle: saline with Tween-80
  T/C: 100 % of control
dose: 264.0 mg/kg/injection, schedule: Q04DX003 (ip), vehicle: saline with Tween-80
  T/C: 100 % of control
dose: 400.0 mg/kg/injection, schedule: Q04DX003 (ip), vehicle: saline with Tween-80
  T/C: 109 % of control

## Cc1ccc(/C=N\NC(=O)NN)cc1
dose: 25.0 mg/kg/injection, schedule: Q01DX005 (ip), vehicle: Klucel (hydroxypropylcellulose) (HPC)
  T/C: 97 % of control
[5]
  T/C: 102 % of control

## Cc1c(N=Nc2cccc(Cl)c2Cl)c(-c2ccccc2)nn1C(=S)S
[2]
  T/C: 106 % of control
[3]
  T/C: 94 % of control
[4]
  T/C: 103 % of control

## CC1=NNB(O)c2ccsc21
[9]
  T/C: 98 % of control
[10]
  T/C: 99 % of control
[11]
  T/C: 108 % of control

## O=C1c2ccc3ccccc3c2CN2C(=O)CCC12 (stereo not given)
[1]
  T/C: 105 % of control
[8]
  T/C: 103 % of control
[12]
  T/C: 104 % of control

## Nc1ccc(CCCC(=O)NCc2cccnc2)cc1
[1]
  T/C: 106 % of control
[8]
  T/C: 96 % of control
[12]
  T/C: 91 % of control

## Cc1cc(Cl)n[nH]1
dose: 6.25 mg/kg/injection, schedule: Q01DX009 (ip), vehicle: saline with Tween-80
  T/C: 108 % of control
dose: 12.0 mg/kg/injection, schedule: Q01DX009 (ip), vehicle: saline with Tween-80
  T/C: 108 % of control
[13]
  T/C: 106 % of control

## CCN(CC)CCNC1=CC(=S)NC(C)(C)C1
[13]
  T/C: 103 % of control
[9]
  T/C: 94 % of control
[10]
  T/C: 106 % of control
[11]
  T/C: 94 % of control

## NC(Cc1ccc2ccccc2c1Br)C(=O)O (stereo not given)
[14]
  T/C: 99 % of control
[15]
  T/C: 99 % of control
[16]
  T/C: 97 % of control

## O=C(/C=C/c1ccccc1)C1CCCCC1
[14]
  T/C: 107 % of control
[15]
  T/C: 107 % of control
[16]
  T/C: 106 % of control

## COc1ccc(C(=O)C(CCC(=O)c2ccc(O)cc2)S(C)(=O)=O)cc1 (stereo not given)
[5]
  T/C: 100 % of control
[6]
  T/C: 93 % of control
[7]
  T/C: 96 % of control

## CCn1c2nc(=O)n(C)c(=O)c-2[n+]([O-])c2cc(Br)ccc21
dose: 6.25 mg/kg/injection, schedule: Q04DX002 (ip), vehicle: saline with Tween-80
  T/C: 100 % of control
dose: 12.5 mg/kg/injection, schedule: Q04DX002 (ip), vehicle: saline with Tween-80
  T/C: 96 % of control
dose: 25.0 mg/kg/injection, schedule: Q04DX002 (ip), vehicle: saline with Tween-80
  T/C: 89 % of control and 92 % of control

## O=C1c2cccnc2C(=O)c2c(O)ccc(O)c21
[9]
  T/C: 95 % of control
[10]
  T/C: 95 % of control
[11]
  T/C: 99 % of control
dose: 400.0 mg/kg/injection, schedule: Q01DX009 (ip), vehicle: saline with Tween-80
  T/C: 100 % of control

## CCOC(=O)C(CC(C(=O)O)c1ccccc1)c1ccccc1 (stereo not given)
[5]
  T/C: 100 % of control
[6]
  T/C: 96 % of control
[7]
  T/C: 96 % of control

## Nc1nc(-c2ccccc2)nc2sc3c(c12)CCCC3
[5]
  T/C: 104 % of control
[6]
  T/C: 106 % of control
[7]
  T/C: 103 % of control

## CCCCCCCCOCCS(=O)(=O)O
[1]
  T/C: 95 % of control
[8]
  T/C: 92 % of control

## COc1ccc(N=Cc2ccc(C=Nc3ccc(OC)cc3OC)cc2)c(OC)c1
dose: 50.0 mg/kg/injection, schedule: Q01DX009 (ip), vehicle: saline
  T/C: 93 % of control
dose: 100.0 mg/kg/injection, schedule: Q01DX009 (ip), vehicle: saline
  T/C: 96 % of control
dose: 200.0 mg/kg/injection, schedule: Q01DX009 (ip), vehicle: saline
  T/C: 91 % of control

## CCCCN=C1NS(=O)(=O)c2ccccc21
[2]
  T/C: 103 % of control
[3]
  T/C: 107 % of control
[4]
  T/C: 103 % of control

## Clc1ccc(-c2nnc(-c3ccncc3)o2)c(Cl)c1
[1]
  T/C: 93 % of control
[8]
  T/C: 93 % of control
[12]
  T/C: 86 % of control

## CC([Se])=Nc1ccc(Br)cc1
dose: 12.5 mg/kg/injection, schedule: Q04DX003 (ip), vehicle: Klucel (hydroxypropylcellulose) (HPC)
  T/C: 100 % of control
dose: 25.0 mg/kg/injection, schedule: Q04DX003 (ip), vehicle: Klucel (hydroxypropylcellulose) (HPC)
  T/C: 100 % of control

## CCCCCCCCCCCCCCCCN(C)C(C)c1ccccc1 (stereo not given)
dose: 100.0 mg/kg/injection, schedule: Q04DX002 (ip), vehicle: saline with Tween-80
  T/C: 103 % of control
dose: 200.0 mg/kg/injection, schedule: Q04DX002 (ip), vehicle: saline with Tween-80
  T/C: 101 % of control
dose: 400.0 mg/kg/injection, schedule: Q04DX002 (ip), vehicle: saline with Tween-80
  T/C: 104 % of control

## CC(C)(C)NCC(O)c1ccc(O)c(NC=O)c1 (stereo not given)
[9]
  T/C: 110 % of control
[10]
  T/C: 100 % of control
[11]
  T/C: 102 % of control

## CNC(=O)OC1=NCCN1
[5]
  T/C: 94 % of control
[6]
  T/C: 100 % of control
[7]
  T/C: 99 % of control

## N=C=S.N=C=S.O=[N+]([O-])O.[Co+3].[NH2-].[NH2-].[NH2-].[NH2-]
[14]
  T/C: 113 % of control

## CC(C(=O)O)C(C)(C)c1ccccc1 (stereo not given)
dose: 100.0 mg/kg/injection, schedule: Q01DX001 (ip), vehicle: saline with Tween-80
  T/C: 100 % of control
dose: 200.0 mg/kg/injection, schedule: Q01DX001 (ip), vehicle: saline with Tween-80
  T/C: 99 % of control
dose: 400.0 mg/kg/injection, schedule: Q01DX001 (ip), vehicle: saline with Tween-80
  T/C: 105 % of control

## Cc1n[nH]c(=S)n1C
dose: 43.75 mg/kg/injection, schedule: Q04DX003 (ip), vehicle: saline sonified
  T/C: 95 % of control
dose: 87.5 mg/kg/injection, schedule: Q04DX003 (ip), vehicle: saline sonified
  T/C: 100 % of control
dose: 175.0 mg/kg/injection, schedule: Q04DX003 (ip), vehicle: saline sonified
  T/C: 90 % of control
